# From EP4596574A1, “GLP-1/GCG/GIP TRIPLE-RECEPTOR AGONIST AND USE THEREOF” (Sunshine Lake Pharma Co., Ltd., priority 2022, dated 2024)
# Marks after values point to notes of the source that are not given here.
# Key:
# [1] = target: T1, GCGR (Homo sapiens, UniProt P47871); experiment: In vitro cell activity, cAMP production in HEK293 cells expressing GCGR; type: cell-based
# T1 construct: expressed in transfected cells; host or cells: HEK293 (HEK293-GCGR)
# Outline: (§1)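 Cells were plated at 4×10^5 cells/mL, and detection reagents (cAMP-d2, anti-cAMP cryptate, 1:1) were incubated 1 h at room temperature in the dark or overnight at 4 °C.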
# [2] = target: T2, GIPR (Homo sapiens, UniProt P48546); experiment: In vitro cell activity, cAMP production in HEK293 cells expressing GIPR; type: cell-based
# T2 construct: expressed in transfected cells; host or cells: HEK293 (HEK293-GIPR)
# T2 sequence (P48546 22-466): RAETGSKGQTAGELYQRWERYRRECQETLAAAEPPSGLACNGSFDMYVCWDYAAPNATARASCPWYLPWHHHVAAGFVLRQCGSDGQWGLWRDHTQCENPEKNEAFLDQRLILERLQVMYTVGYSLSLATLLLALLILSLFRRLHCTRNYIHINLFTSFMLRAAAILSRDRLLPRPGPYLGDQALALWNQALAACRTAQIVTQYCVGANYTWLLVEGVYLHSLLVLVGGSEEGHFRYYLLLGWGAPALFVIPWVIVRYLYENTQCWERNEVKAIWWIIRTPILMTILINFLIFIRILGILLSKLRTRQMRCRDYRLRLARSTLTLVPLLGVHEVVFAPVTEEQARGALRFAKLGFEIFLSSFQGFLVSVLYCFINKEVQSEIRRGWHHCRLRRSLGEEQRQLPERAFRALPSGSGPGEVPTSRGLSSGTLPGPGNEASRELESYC
# Outline: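 cAMP accumulation is quantified by homogeneous TR-FRET (cAMP-d2 plus anti-cAMP cryptate) in GIPR-expressing HEK293 cells seeded from a 4×10^5 cells/mL suspension and treated with compound. The signal ratio is plotted against concentration and fitted to a four-parameter curve to give EC50.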
# [3] = Glucose tolerance assessment in normal C57BL/6 mice (Example 5); type: in vivo
# Method: Twelve hours after the single administration, the animals were fasted for 12 hours and had free access to water. Blood was collected from the tail vein to determine the basal blood glucose level of each group of animals, and then 2 g/kg glucose solution was injected intraperitoneally. Blood glucose was tested at 15, 30, 60, and 90 min after glucose administration. The blood glucose concentration-time curve was drawn according to the blood glucose values measured at different time points, and the AUC0~90min of each dose group was calculated as shown in Table 5 and Figure 2. Table 5: Effects of single administration of HEC-PT86, HEC-PT96, HEC-PT112, HEC-PT113, HEC-PT114, and HEC-PT119 on glucose tolerance in normal C57 mice 24 h after administration
# [4] = target: T3, GLP-1R (Homo sapiens, UniProt P43220); experiment: In vitro cell activity, cAMP production in HEK293 cells expressing GLP-1R; type: cell-based
# T3 construct: expressed in transfected cells; host or cells: HEK293 (HEK293-GLP-1R)
# T3 sequence (P43220 24-463, species assumed): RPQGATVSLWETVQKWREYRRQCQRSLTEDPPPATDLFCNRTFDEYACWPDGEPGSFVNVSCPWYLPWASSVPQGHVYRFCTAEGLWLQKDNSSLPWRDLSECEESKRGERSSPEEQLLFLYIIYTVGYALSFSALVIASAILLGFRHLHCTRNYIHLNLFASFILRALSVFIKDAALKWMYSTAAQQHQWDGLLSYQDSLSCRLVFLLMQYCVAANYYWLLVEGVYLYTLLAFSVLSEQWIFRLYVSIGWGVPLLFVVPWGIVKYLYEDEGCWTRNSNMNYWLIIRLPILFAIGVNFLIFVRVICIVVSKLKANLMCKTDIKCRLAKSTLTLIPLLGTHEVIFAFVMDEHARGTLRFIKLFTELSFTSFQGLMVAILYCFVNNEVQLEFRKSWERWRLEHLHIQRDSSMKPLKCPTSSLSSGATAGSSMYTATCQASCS
# Outline: as §1
# [5] = Long-term repeated administration in diet-induced obese C57BL/6 mice (DIO); type: in vivo, C57/BL6 mice
# Description: Experimental methods: C57/BL6 mice were randomly divided into a normal group (NFD) and a model group (HFD) at the fifth week of age. The normal group was fed with ordinary maintenance feed, while the other groups were fed with high-fat feed D12492. The body weight and food intake of mice were monitored every 3 weeks. After 16 weeks of feeding, the body weights of mice in the model group and the normal group were (49.0±2.3) g and (31.0±2.0) g, respectively, and the difference between the two groups was statistically significant. […] Body weight and food intake were measured before each administration. After 3 weeks of administration, an intraperitoneal glucose tolerance test was performed. The mice were slaughtered and samples were collected 72 h after the last administration. The liver weight was recorded, and the liver pathological conditions and blood biochemical indexes of each group were tested.
# [6] = 10 nmol/kg s.c. once every 3 days, D7
# [7] = 10 nmol/kg s.c. once every 3 days, D10
# [8] = 10 nmol/kg s.c. once every 3 days, D13
# [9] = 10 nmol/kg s.c. once every 3 days, D16
# [10] = 10 nmol/kg s.c. once every 3 days, D19
# [11] = 10 nmol/kg s.c. once every 3 days, D22
# [12] = 10 nmol/kg s.c. once every 3 days, D25
# [13] = 10 nmol/kg s.c. once every 3 days, D28
# [14] = after 4 weeks of administration, same dose
# [15] = long-term administration 10 nmol/kg, 72 h after the last administration
# [16] = long-term administration 10 nmol/kg, blood biochemical index
# T1 sequence (P47871 26-477, species assumed): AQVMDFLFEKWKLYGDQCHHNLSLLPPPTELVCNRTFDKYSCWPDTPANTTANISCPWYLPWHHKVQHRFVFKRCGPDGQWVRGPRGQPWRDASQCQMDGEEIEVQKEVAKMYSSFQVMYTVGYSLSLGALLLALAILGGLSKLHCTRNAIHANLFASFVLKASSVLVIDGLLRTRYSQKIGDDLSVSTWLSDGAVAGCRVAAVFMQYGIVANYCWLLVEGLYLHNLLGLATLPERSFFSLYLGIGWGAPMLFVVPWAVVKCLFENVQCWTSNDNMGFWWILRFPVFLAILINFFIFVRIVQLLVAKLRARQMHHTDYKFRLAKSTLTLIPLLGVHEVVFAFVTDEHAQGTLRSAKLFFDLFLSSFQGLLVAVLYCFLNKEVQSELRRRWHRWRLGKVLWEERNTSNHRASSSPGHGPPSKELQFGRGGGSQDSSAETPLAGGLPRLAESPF
compound,measurement,setting,value
CC[C@H](C)[C@H](NC(=O)[C@H](Cc1ccccc1)NC(=O)[C@H](C)NC(=O)C(C)(C)NC(=O)[C@H](CCC(N)=O)NC(=O)[C@H](CCCNC(=N)N)NC(=O)[C@H](CCCCNC(=O)COCCOCCNC(=O)CC[C@H](NC(=O)CCCCCCCCCCCCCCCCC(=O)O)C(=O)O)NC(=O)[C@H](CCC(=O)O)NC(=O)[C@H](CC(=O)O)NC(=O)[C@H](CC(C)C)NC(=O)[C@H](CC(C)C)NC(=O)[C@@H](NC(=O)[C@H](CO)NC(=O)[C@H](Cc1ccc(O)cc1)NC(=O)[C@H](CC(=O)O)NC(=O)[C@H](CO)NC(=O)[C@@H](NC(=O)[C@](C)(Cc1ccccc1F)NC(=O)[C@@H](NC(=O)CNC(=O)[C@H](CCC(N)=O)NC(=O)C(C)(C)NC(=O)[C@@H](N)Cc1ccc(O)cc1)[C@@H](C)O)[C@@H](C)O)[C@@H](C)CC)C(=O)N[C@@H](CCC(=O)O)C(=O)N[C@@H](Cc1ccc(O)cc1)C(=O)N[C@@H](CC(C)C)C(=O)N[C@@H](CC(C)C)C(=O)N[C@@H](C)C(=O)NCC(=O)NCC(=O)N1CCC[C@H]1C(=O)N[C@@H](CO)C(=O)N[C@@H](CO)C(=O)NCC(=O)N[C@@H](C)C(=O)N1CCC[C@H]1C(=O)N1CCC[C@H]1C(=O)N1CCC[C@H]1C(=O)N[C@@H](CO)C(N)=O [HEC-PT112],EC50,[1],0.871 nM
same,EC50,[2],0.0534 nM
same,Blood glucose level (mM) 15 min,"[3]; 3 nmol/kg s.c. single dose, 24 h after administration, 15 min after 2 g/kg glucose i.p.",11.7 ± 2.6 mM
same,Blood glucose level (mM) 30 min,"[3]; 3 nmol/kg s.c. single dose, 24 h after administration, 30 min after 2 g/kg glucose i.p.",8.6 ± 1.9 mM
same,Blood glucose level (mM) 60 min,"[3]; 3 nmol/kg s.c. single dose, 24 h after administration, 60 min after 2 g/kg glucose i.p.",7.3 ± 0.7 mM
same,Blood glucose level (mM) 90 min,"[3]; 3 nmol/kg s.c. single dose, 24 h after administration, 90 min after 2 g/kg glucose i.p.",6.7 ± 0.6 mM
same,Blood glucose level (mM) 0 min,"[3]; 3 nmol/kg s.c. single dose, 24 h after administration, basal before 2 g/kg glucose i.p.",4.9 ± 1.3 mM
same,improvement of glucose tolerance compared with LY3298176,"[3]; 24 hours after a single administration, 3 nmol/kg",improved glucose tolerance in mice better than the positive control LY3298176
same,AUC0-90 min,"[3]; blood glucose AUC, 3 nmol/kg s.c. single dose, 24 h after administration, 2 g/kg glucose i.p.",726.2±82.4^a
same,EC50,[4],0.183 nM
same,Cumulative food intake (g/pcs) D7,[5]; [6],5.6 g/pcs
same,Weight gain rate (%) D7,[5]; [6],-21.3±4.0%
same,Cumulative food intake (g/pcs) D10,[5]; [7],7.8 g/pcs
same,Weight gain rate (%) D10,[5]; [7],-28.6±7.0%
same,Cumulative food intake (g/each) D13,[5]; [8],10.6 g/each
same,Weight gain rate (%) D13,[5]; [8],-32.4±7.7%
same,Cumulative food intake (g/each) D16,[5]; [9],15.5 g/each
same,Weight gain rate (%) D16,[5]; [9],-34.0±7.1%
same,Cumulative food intake (g/each) D19,[5]; [10],21.0 g/each
same,Weight gain rate (%) D19,[5]; [10],-34.5±5.7%
same,Cumulative food intake (g/each) D22,[5]; [11],26.6 g/each
same,Weight gain rate (%) D22,[5]; [11],-35.6±5.6%
same,Cumulative food intake (g/each) D25,[5]; [12],32.3 g/each
same,Weight gain rate (%) D25,[5]; [12],-36.4±5.1%
same,Cumulative food intake (g/each) D28,[5]; [13],39.1 g/each
same,Weight gain rate (%) D28,[5]; [13],-36.2±4.3%
same,Cumulative food intake (g/each) D30,"[5]; 10 nmol/kg s.c. once every 3 days, D30",43.0^a g/each
same,Weight gain rate (%) D31,"[5]; 10 nmol/kg s.c. once every 3 days, D31",-35.6±4.3^a %
same,Cumulative food intake (g/pcs) D0,"[5]; 10 nmol/kg s.c., D0",2.3 g/pcs
same,Weight gain rate (%) D0,"[5]; 10 nmol/kg s.c., D0",0.0±0.0%
same,Cumulative food intake (g/pcs) D1,"[5]; 10 nmol/kg s.c., D1",2.5 g/pcs
same,Weight gain rate (%) D1,"[5]; 10 nmol/kg s.c., D1",-5.4±0.9%
same,Cumulative food intake (g/pcs) D2,"[5]; 10 nmol/kg s.c., D2",2.9 g/pcs
same,Weight gain rate (%) D2,"[5]; 10 nmol/kg s.c., D2",-8.8±0.8%
same,Cumulative food intake (g/pcs) D3,"[5]; 10 nmol/kg s.c., D3",3.5 g/pcs
same,Weight gain rate (%) D3,"[5]; 10 nmol/kg s.c., D3",-10.6±1.0%
same,Cumulative food intake (g/pcs) D4,"[5]; 10 nmol/kg s.c., D4",4.1 g/pcs
same,Weight gain rate (%) D4,"[5]; 10 nmol/kg s.c., D4",-12.6±1.7%
same,liver function and blood lipids of DIO mice,[5]; after 4 weeks of administration,significantly improved the liver function and blood lipids
same,food intake inhibition effect compared with LY3298176,[5]; [14],certain advantages in inhibiting food intake
same,weight loss effect compared with LY3298176,[5]; [14],significantly better than that of LY3298176
same,Liver index/%,[5]; [15],3.0±0.0^a %
same,Liver/g,[5]; [15],0.9±0.1^a g
same,Weight/g,[5]; [15],29.7±2.5^a g
same,ALT (U/L),[5]; [16],25.9±6.6^a U/L
same,AST (U/L),[5]; [16],115.3±16.2^a U/L
same,CHOL (mmol/L),[5]; [16],3.1±0.5^a mmol/L
same,TRIGL (mmol/L),[5]; [16],0.6±0.1^a mmol/L
